{"source": "patent US8785381B2", "about": "(Emisphere Technologies, Inc., priority 2003, dated 2014)", "assay": "in vivo", "conditions": "male, Sprague-Dawley, rat"}
{"compound": "CC[C@H](C)[C@H](NC(=O)[C@H](Cc1ccccc1)NC(=O)[C@H](CCC(=O)O)NC(=O)[C@H](CCCCN)NC(=O)[C@H](C)NC(=O)[C@H](C)NC(=O)[C@H](CCC(N)=O)NC(=O)CNC(=O)[C@H](CCC(=O)O)NC(=O)[C@H](CC(C)C)NC(=O)[C@H](Cc1ccc(O)cc1)NC(=O)[C@H](CO)NC(=O)[C@H](CO)NC(=O)[C@@H](NC(=O)[C@H](CC(=O)O)NC(=O)[C@H](CO)NC(=O)[C@@H](NC(=O)[C@H](Cc1ccccc1)NC(=O)[C@@H](NC(=O)CNC(=O)[C@H](CCC(=O)O)NC(=O)[C@H](C)NC(=O)[C@@H](N)Cc1c[nH]cn1)[C@@H](C)O)[C@@H](C)O)C(C)C)C(=O)N[C@@H](C)C(=O)N[C@@H](Cc1c[nH]c2ccccc12)C(=O)N[C@@H](CC(C)C)C(=O)N[C@H](C(=O)N[C@@H](CCCCN)C(=O)NCC(=O)N[C@@H](CCCNC(=N)N)C(N)=O)C(C)C", "note": "[GLP-1]", "values": [{"measurement": "Cmax", "setting": "1 ng/kg", "value": 0.0314, "unit": "ng/mL"}, {"measurement": "Cmax", "setting": "2 ng/kg", "value": 0.0324, "unit": "ng/mL"}, {"measurement": "Cmax", "setting": "3 ng/kg", "value": 0.0175, "unit": "ng/mL"}, {"measurement": "Cmax", "setting": "10 ng/kg", "value": 0.0171, "unit": "ng/mL"}, {"measurement": "Cmax", "setting": "50 ng/kg", "value": 0.153, "unit": "ng/mL"}, {"measurement": "Cmax", "setting": "0.5 mg/kg", "value": 27.9, "unit": "ng/mL"}, {"measurement": "Cmax", "setting": "500 μg/kg", "value": 0.106, "unit": "ng/mL"}]}
